Experimental data as given in patent publication US9826766B2 (priority 2012, dated 2017).

Assays:
Settings in all cases: mouse, in vivo
[1] = test system: enterotoxinogenic strain of Clostridium perfringens; set-up: species or system axenic C3H/He mice
[2] = test system: enterotoxinogenic strain of Clostridium perfringens
[3] = test system: enterotoxinogenic strain of Clostridium perfringens; set-up: species or system axenic C3H/He mice; remark: listed apart in the source

Structure (SMILES): OC[C@H]1O[C@@H](O[C@H]2[C@H](O)[C@@H](O)C(O)O[C@@H]2CO)[C@H](O)[C@@H](O)[C@H]1O (some centres unmarked) [Lactose]
- Count (log CFU/g of feces) of Clostridium perfringens [1]: Mice dead or dying
- mice died [2]: 100%
- Clostridium perfringens count, Blood [3]: 2.3 log CFU/g
- Clostridium perfringens count, Cecum [3]: 5.5 ± 0.8 log CFU/g
- Clostridium perfringens count, Colon [3]: 6.6 ± 0.1 log CFU/g
- Clostridium perfringens count, Ileum [3]: 3.4 ± 0.8 log CFU/g
- Clostridium perfringens count, Kidney [3]: 3.0 log CFU/g
- Clostridium perfringens count, Liver [3]: 4.4 log CFU/g
- Clostridium perfringens count, Spleen [3]: 4.2 log CFU/g
- bacterial translocation, in words [3]: promotes bacterial translocation
- colonization of the intestine vs control mice, in words [3]: weak colonization of the intestine
